Measured values: publication PMC8286599 (Gut Pathogens, 2021)
In brackets after ≈: the same amount, converted by molar mass. Like-named read-outs stand apart in the source and are kept apart here.

How the values were obtained:
[1] = test system: Salmonella Enteritidis strains; format: cell-based; note: key: S- Sensitive; I- Intermediate; R- Resistant
[2] = test system: Salmonella Typhimurium strains; format: cell-based; note: key: S- Sensitive; I- Intermediate; R- Resistant
EAEC strains [3] = assay: Antibiotic susceptibility testing; format: cell-based, enteroaggregative Escherichia coli; note: key: S- Sensitive; I- Intermediate; R- Resistant
Text: Supplement 13099_2021_443_MOESM1_ESM.docx, table 1: Supplementary Table 1. Antibiotic susceptibility pattern of EAEC and NTS strains under study | column: Antibiotic Susceptibility testing

EAEC strains [4] = assay: MIC values of antibiotics; format: cell-based, enteroaggregative Escherichia coli

Compound | Antibiotic Susceptibility testing ([1]; strain S1) | Antibiotic Susceptibility testing ([1]; strain S2) | Antibiotic Susceptibility testing ([1]; strain S3) | Antibiotic Susceptibility testing ([2]; strain ST1) | Antibiotic Susceptibility testing ([2]; strain ST2) | Antibiotic Susceptibility testing ([2]; strain ST3) | Antibiotic Susceptibility testing (EAEC strains [3]; strain E1) | Antibiotic Susceptibility testing (EAEC strains [3]; strain E2) | Antibiotic Susceptibility testing (EAEC strains [3]; strain E3) | also measured
CCn1cc(C(=O)O)c(=O)c2ccc(C)nc21 [NA, Nalidicic Acid] | R | R | R | R | R | I |  |  |  | 
O=C(O)c1cn(C2CC2)c2cc(N3CCNCC3)c(F)cc2c1=O [CIP] |  |  |  | R | R | R | S | R | R | MIC (EAEC strains [4]; strain E2): 120 µM (≈ 39.8 µg/mL); MIC (EAEC strains [4]; strain E3): 60 µM (≈ 19.9 µg/mL)
CN(C)[C@@H]1C(O)=C(C(N)=O)C(=O)[C@@]2(O)C(O)=C3C(=O)c4c(O)cccc4[C@@](C)(O)[C@H]3C[C@@H]12 [TE] | R | S | S | R | R | R | R | R | R | MIC (EAEC strains [4]; strain E1): 60 µM (≈ 26.7 µg/mL); MIC (EAEC strains [4]; strain E2): 2 µM (≈ 0.889 µg/mL); MIC (EAEC strains [4]; strain E3): 30 µM (≈ 13.3 µg/mL)
CO/N=C(\C(=O)N[C@@H]1C(=O)N2C(C(=O)[O-])=C(C[N+]3(C)CCCC3)CS[C@H]12)c1csc(N)n1 [CPM] | S | S | S | S | S | S |  |  |  | 
C[C@H]1COc2c(N3CCN(C)CC3)c(F)cc3c(=O)c(C(=O)O)cn1c23 [LE, Levofloxacin] |  |  |  | R | R | I |  |  |  | 
C[C@@H](O)[C@H]1C(=O)N2C(C(=O)O)=C(SCCN=CN)C[C@H]12 [IMI, Imipenem] |  |  |  |  |  |  | S | S | S | MIC Values, class symbol printed instead of a number (EAEC strains [4]; strain E1): S; MIC Values, class symbol printed instead of a number (EAEC strains [4]; strain E2): S; MIC Values, class symbol printed instead of a number (EAEC strains [4]; strain E3): S
CC(C)(O/N=C(\C(=O)N[C@@H]1C(=O)N2C(C(=O)[O-])=C(C[n+]3ccccc3)CS[C@H]12)c1csc(N)n1)C(=O)O [CAZ] |  |  |  | S | R | I |  |  |  | 
COCC1=C(C(=O)O)N2C(=O)[C@@H](NC(=O)/C(=N\OC)c3csc(N)n3)[C@H]2SC1 [CPD, Cefpodoxime] | R | R | R |  |  |  |  |  |  | 
Cc1noc(NS(=O)(=O)c2ccc(N)cc2)c1C [SF, Sulphafurazole] | S | R | S |  |  |  |  |  |  | 
C[C@H]1[C@H](NC(=O)/C(=N\OC(C)(C)C(=O)O)c2csc(N)n2)C(=O)N1S(=O)(=O)O [AT, Aztreonam] | S | S | S |  |  |  |  |  |  | 
CO/N=C(\C(=O)N[C@@H]1C(=O)N2C(C(=O)O)=C(COC(C)=O)CS[C@H]12)c1csc(N)n1 [CTR, Cefotaxime] |  |  |  | S | R | S | S | R | R | MIC (EAEC strains [4]; Escherichia coli, strain E2): > 240 µM; MIC Values, class symbol printed instead of a number (EAEC strains [4]; strain E1): S; MIC (EAEC strains [4]; strain E3): >240 µM
O=C1CN(/N=C/c2ccc([N+](=O)[O-])o2)C(=O)N1 [NIT, Nitrofurantoin] |  |  |  |  |  |  |  |  |  | Antibiotic Susceptibility testing [1]: S and R
C[C@@H](O)[C@H]1C(=O)N2C(C(=O)O)=C(S[C@@H]3CN[C@H](C(=O)N(C)C)C3)[C@H](C)[C@H]12 [MRP, Meropenem] | S | S | S |  |  |  |  |  |  | 
Colistin sulphate |  |  |  |  |  |  | S | S | S | MIC Values, class symbol printed instead of a number (EAEC strains [4]; strain E1): S; MIC Values, class symbol printed instead of a number (EAEC strains [4]; strain E2): S; MIC Values, class symbol printed instead of a number (EAEC strains [4]; strain E3): S
Cc1nnc(SCC2=C(C(=O)O)N3C(=O)[C@@H](NC(=O)Cn4cnnn4)[C@H]3SC2)s1 [CZ] |  |  |  | S | S | S |  |  |  | 
CC[C@H]1OC(=O)[C@H](C)[C@@H](O[C@H]2C[C@@](C)(OC)[C@@H](O)[C@H](C)O2)[C@H](C)[C@@H](O[C@@H]2O[C@H](C)C[C@H](N(C)C)[C@H]2O)[C@](C)(O)C[C@@H](C)CN(C)[C@H](C)[C@@H](O)[C@]1(C)O [AZM, Azithromycin] |  |  |  |  |  |  |  |  |  | Antibiotic Susceptibility testing [1]: S
CCN1CCN(C(=O)N[C@@H](C(=O)N[C@@H]2C(=O)N3C(C(=O)O)=C(CSc4nnnn4C)CS[C@H]23)c2ccc(O)cc2)C(=O)C1=O [CPZ, Cefoperozone] | S | S | S |  |  |  |  |  |  | 
Nc1ccc(S(=O)(=O)Nc2ncccn2)cc1 [SD, Sulfadiazine] |  |  |  |  |  |  |  |  |  | Antibiotic Susceptibility testing [1]: R
CC1(C)S[C@@H]2[C@H](NC(=O)[C@H](N)c3ccccc3)C(=O)N2[C@H]1C(=O)O [AMP] | R | R | R | R | R | R | R | R | R | MIC (EAEC strains [4]; strain E1): >240 µM; MIC (EAEC strains [4]; strain E2): >240 µM; MIC (EAEC strains [4]; strain E3): >240 µM
Cc1cc(NS(=O)(=O)c2ccc(N)cc2)no1 [SXT, Sulfamethoxazole] |  |  |  |  |  |  | R | S | R | 
C[C@@H](O)[C@H]1C(=O)N2C(C(=O)O)=C(SCCN=CN)C[C@H]12 [IPM] |  |  |  | S | S | S |  |  |  | 
CO/N=C(\C(=O)N[C@@H]1C(=O)N2C(C(=O)O)=C(COC(C)=O)CS[C@H]12)c1csc(N)n1 [CTX] | S | S | S |  |  |  |  |  |  | 
CO[C@@]1(NC(=O)Cc2cccs2)C(=O)N2C(C(=O)O)=C(COC(N)=O)CS[C@@H]21 [CX] |  |  |  |  |  |  |  |  |  | Antibiotic Susceptibility testing [1]: S; Antibiotic Susceptibility testing [2]: S and R and I
O=C(N[C@H](CO)[C@H](O)c1ccc([N+](=O)[O-])cc1)C(Cl)Cl [C, Chloramphenicol] | R | S | S | R | R | R | S | S | S | MIC Values, class symbol printed instead of a number (EAEC strains [4]; strain E1): S; MIC Values, class symbol printed instead of a number (EAEC strains [4]; strain E2): S; MIC Values, class symbol printed instead of a number (EAEC strains [4]; strain E3): S
NC[C@H]1O[C@H](O[C@H]2[C@H](O)[C@@H](O[C@H]3O[C@H](CO)[C@@H](O)[C@H](N)[C@H]3O)[C@H](N)C[C@@H]2N)[C@H](O)[C@@H](O)[C@@H]1O [K, Kanamycin] | R | S | S |  |  |  |  |  |  | 
